Data reported in US20120238554A1, “SALTS OF POTASSIUM ATP CHANNEL OPENERS AND USES THEREOF” (priority 2007, published 2012).
Read-outs that look alike come from different tables or passages of the source.

What was measured:
obese Zucker rats = conditions: 5 mg/kg/day, cited from earlier work
[1] = Excipient compatibility study for diazoxide choline salt; assay type: physicochemical
high-fructose diet rats = conditions: rat, in vivo; cited from earlier work
Zucker rats = conditions: oral 1-10 mg/kg/day, 14 days; cited from earlier work
[2] = Form conversion and degradation under thermal stress (60° C.)
Procedure: Studies were also conducted to evaluate the likelihood for conversion and degradation under thermal stress.

[3] = Moisture sorption analysis; assay type: physicochemical
Procedure: Moisture Sorption Analysis was performed with a Hiden IGAsorp Moisture Sorption Instrument, Samples were first dried at 0% relative humidity at 25° C. until an equilibrium weight was reached, or for a maximum of 4 hours. Samples were then subjected to an isothermal (25° C.) scan from 10-90% relative humidity in steps of 10%. The samples were allowed to equilibrate to an asymptotic weight at each point for a maximum of 4 hours. Following absorption, a desorption scan from […] relative humidity (at 25° C.) was run in steps of −10%, again allowing a maximum of 4 hours for the samples to equilibrate. The resulting samples after desorption were dried at 80° C. for two hours and analyzed by XRPD.

[4] = test system: hypertriglyceridemic patients
Procedure: A clinical study was conducted in 12 hypertriglyceridemic patients. […] After day 8 they were crossed over from one formulation to the other formulation. […] The endpoint of the study was percentage change from baseline to day 15 of triglycerides, total cholesterol, LDL cholesterol, HDL cholesterol and non-HDL cholesterol. Lipid parameters were measured at baseline and on days 7 and 15. Blood pressure was collected at multiple time points.

healthy volunteers [5] = test system: healthy volunteers
Procedure: (§1) A randomized double-blind, placebo-controlled clinical trial was conducted in 24 healthy volunteers. They were randomized in a 2:1 ratio of treated to placebo. […] The dose was administered once per day in the morning for a period of 7 days. A number of lipid parameters were measured at baseline and again on day 7 including fasting triglycerides, total cholesterol, LDL cholesterol, HDL cholesterol, and non-HDL cholesterol. Additionally, blood pressure was measured on a daily basis.
In PK008, the dose was administered as one and one ½ tablet formulation K′.

[6] = Slurry studies of inter-conversion of the solid form; conditions: n-heptane, dichloromethane; for inter-conversion of the solid form in slurry: room temperature, 7 and 14 days, toluene (Table 16 Form B: CH2Cl2, THF, t-AmOH)
[7] = mouse, in vivo; for AUC0-6: 50 mg/kg
Procedure: The study used 4 mice dosed per treatment arm. Following, a single intravenous or oral dose, administered by gavage, pharmacokinetic samples were collected at 4 time points: 0.5, 1, 3, and 6 hours post-dosing. Two mice were sampled at each timepoint, with each mouse contributing samples to two timepoints. Each test drug was administered as a 50 mg/kg dose, which yields nearly equal molar concentrations. […] Blood samples were collected into tubes containing dipotassium EDTA as the anticoagulant and placed on ice packs until centrifugation (at 3000 rpm for 10 minutes at 4° C.). After centrifugation, samples were stored at −70° C. until they were thawed for analysis. Circulating drug levels were measured using a precise and reproducible LC-MS/MS assay.

healthy volunteers [8] = test system: healthy volunteers; remark: listed apart in the source
Procedure: as §1

[9] = test system: hypertriglyceridemic patients; assay: Crossover of formulations U and K′ (435 mg/day diazoxide choline): lipid responses; assay type: in vivo, human; conditions: 15 days, 435 mg/day diazoxide choline once daily
Procedure: A clinical study was conducted in 12 hypertriglyceridemic patients. […] Treatment continued for 16 days. The endpoint of the study was percentage change from baseline to day 15 of triglycerides, total cholesterol, LDL cholesterol, HDL cholesterol and non-HDL cholesterol. Lipid parameters were measured at baseline and on days 7 and 15. Blood pressure was collected at multiple time points.

[10] = pH 2
Procedure: Solubility concentrations were determined using area-percent calculations with HPLC calibration curves.

[11] = Polymorph screening crystallizations and characterization of forms (XRPD, DSC, TGA); assay type: physicochemical
Procedure: DSC analysis were conducted with a Mettler 822 DSC, by measuring the amount of energy released by a sample, as the sample was heated from 30° C. to between 300-500° C. at a rate of 10° C./min. Typical applications of DSC analysis include determination of melting point temperature and the heat of melting; measurement of the glass transition temperature; curing and crystallization studies; and identification of phase transformations.
TGA measurements were conducted with a Mettler 851 SDTA/TGA, by measuring weight loss as a function of increasing temperature, as the samples were heated from 30° C. to 230° C. at a rate of 10° C./min. The TCA can be used to analyze desorption and decomposition behavior, characterize oxidation behavior, set burnout or conditioning parameters (temperature/ramp rate/time), and determine chemical composition.
XRPD samples were analyzed with a Shimadzu XRD-6000 system, using a Cu Kα, 40 kV, 40 mA X-ray tube. The divergence and scatter slits were 1.00 deg, and the receiving slit was 0.30 mm. Samples were continuously scanned at a range of 3.0-45.0 deg, with a step size of 0.04 deg., at a scan rate of 2 deg/min.
After hot filtration the vials were placed in a refrigerator (4° C.) for 16 hours. […] All solids were dried in vacuo at ambient temperature and 30 in. Hg.
After hot filtration the vials were then slowly cooled to room temperature at the rate of 20° C./h and stirred at room temperature for 1-2 hours. All solids were dried in vacuo at ambient temperature and 30 in. Hg.
Solvents for crystallizations were chosen based on the solubility screen summarized below.

[12] = Study EC004, 435 mg diazoxide choline, 7 days
[13] = Study TR002, 508 mg diazoxide choline, 49 days
[14] = 300 mg diazoxide/day, formulation U
[15] = baseline to day 7, 300 mg diazoxide/day as formulation U
[16] = 25° C., listed as Potassium diazoxide salt

Cl.N#CN=C(Nc1ccc(N)nc1)N[C@@H]1C[C@@H]2CC[C@H]1C2 [AL0671, (+)—N-(6-amino-3-pyridil)-N′-[(1S,2R,4R)-bicyclo-[2.2.1]hept-2-yl]-N″-cyanoguanidine hydrochloride]
serum total triglyceride, chylomicron and very-low-density lipoprotein levels (obese Zucker rats; 1 or 2 weeks): significantly decrease
increase of hepatic triglyceride lipase activities (obese Zucker rats; postheparin plasma): 3 fold
increase of lipoprotein lipase activities (obese Zucker rats; postheparin plasma): 4 fold

CC1=Nc2ccc(Cl)cc2S(=O)(=O)N1 [Diazoxide Control]
diazoxide choline salt assayed in mixture with excipient ([1]; 1 Month 40° C./75% RH): 99.0 % (w/w)
diazoxide choline salt assayed in mixture with excipient ([1]; 1 Month 50° C.): 99.4 % (w/w)

N#CNC(=NCCc1ccccc1Cl)c1cncc(N)c1 [KRN4884]
Hepatic triglyceride lipase activity (high-fructose diet rats): not affected
lipoprotein lipase (LPL) activity in muscle (high-fructose diet rats): significantly increased
serum insulin and glucose levels (Zucker rats): no change
serum triglyceride levels (Zucker rats): dose dependently reduce

CC1=Nc2ccc(Cl)cc2S(=O)(=O)[N-]1.C[N+](C)(C)CCO [diazoxide choline]
degradation under thermal stress (HPLC gradient area percent) [2]: did not show any significant degradation
form conversion and degradation under thermal stress (XRPD, DSC) [2]: consistent with the starting material, as well as the presence of additional unique peaks
hydrate formation (hysteresis upon desorption) ([3]; 25° C.): does not form a stable hydrate
Moisture Sorption (hygroscopicity) ([3]; 25° C., listed as Choline diazoxide salt): deliquescent -
Moisture Sorption (hygroscopicity) ([3]; 25° C., listed as choline salt of diazoxide): hygroscopic
moisture absorbed ([3]; 80% relative humidity, 25° C.): over 28%
crystalline form after moisture sorption/desorption (XRPD) ([3]; listed as choline salt of diazoxide): changed to an alternate crystalline form
average drop in standing blood pressure ([4]; 7 days of treatment): ~8 mmHg
standing diastolic blood pressure ([4]; after 7 days of treatment, baseline 80): 75.5 mmHg
standing systolic blood pressure ([4]; after 7 days of treatment, baseline 123): 112 mmHg
supine diastolic blood pressure ([4]; after seven days of treatment, baseline 69): 62.5 mmHg
supine systolic blood pressure ([4]; after seven days of treatment, baseline 121): 116 mmHg
average drop in supine blood pressure ([4]; seven days of treatment): ~6 mmHg
reduction in diastolic blood pressure (healthy volunteers [5]; 7 days, 300 mg diazoxide/day as formulation U, healthy volunteers): 6.2 mmHg
Diastolic blood pressure, Baseline (healthy volunteers [5]; [12]): 69.4 mmHg
Diastolic blood pressure, End of treatment (healthy volunteers [5]; [12]): 63.2 mmHg
Systolic blood pressure, Baseline (healthy volunteers [5]; [12]): 113.2 mmHg
Systolic blood pressure, End of treatment (healthy volunteers [5]; [12]): 113.5 mmHg
Diastolic blood pressure, Baseline (healthy volunteers [5]; [13]): 77.7 mmHg
Diastolic blood pressure, End of treatment (healthy volunteers [5]; [13]): 67.0 mmHg
Systolic blood pressure, Baseline (healthy volunteers [5]; [13]): 118.1 mmHg
Systolic blood pressure, End of treatment (healthy volunteers [5]; [13]): 117.0 mmHg
inter-conversion of the solid form in slurry ([6]; listed as Choline Diazoxide Salt): no propensity of inter-conversion
Absolute oral bioavailability [7]: 100%
AUC0-6 ([7]; iv): 137.176 µg·h/mL
AUC0-6 ([7]; po): 141.26 µg·h/mL
HDL cholesterol, Percent change from base-line (healthy volunteers [8]; 300 mg diazoxide/day, 7 days): 8.2%
LDL cholesterol, Percent change from base-line (healthy volunteers [8]; 300 mg diazoxide/day, 7 days): −5.4%
Total cholesterol, Percent change from base-line (healthy volunteers [8]; 300 mg diazoxide/day, 7 days): −2.3%
Triglycerides, Percent change from base-line (healthy volunteers [8]; 300 mg diazoxide/day, 7 days): −13.2%
non-HDL cholesterol, Percent change from base-line (healthy volunteers [8]; 300 mg diazoxide/day, 7 days): −6.3%
HDL cholesterol, Baseline mean ± SEM (healthy volunteers [8]; [14]): 49 ± 3.3 mg/dL
HDL cholesterol, Day 7 mean ± SEM (healthy volunteers [8]; [14]): 53 ± 2.9 mg/dL
LDL cholesterol, Baseline mean ± SEM (healthy volunteers [8]; [14]): 111 ± 5.8 mg/dL
LDL cholesterol, Day 7 mean ± SEM (healthy volunteers [8]; [14]): 105 ± 4.9 mg/dL
Total cholesterol, Baseline mean ± SEM (healthy volunteers [8]; [14]): 175 ± 7.5 mg/dL
Total cholesterol, Day 7 mean ± SEM (healthy volunteers [8]; [14]): 171 ± 6.4 mg/dL
Triglycerides, Baseline mean ± SEM (healthy volunteers [8]; [14]): 76 ± 7.8 mg/dL
Triglycerides, Day 7 mean ± SEM (healthy volunteers [8]; [14]): 66 ± 3.9 mg/dL
non-HDL cholesterol, Baseline mean ± SEM (healthy volunteers [8]; [14]): 126 ± 6.6 mg/dL
non-HDL cholesterol, Day 7 mean ± SEM (healthy volunteers [8]; [14]): 118 ± 5.5 mg/dL
increase HDL cholesterol (healthy volunteers [8]; [15]): 8.2%
reduction in total cholesterol, LDL cholesterol and non-HDL cholesterol versus placebo arm (healthy volunteers [8]; [15]): reduction in the diazoxide choline treated arm was greater
reduction of triglycerides (healthy volunteers [8]; [15]): 13.2%
HDL cholesterol [9]: marked increase
triglycerides, total cholesterol, LDL cholesterol and nonHDL cholesterol [9]: marked reductions
solid form after the solubility analysis (XRPD) [10]: changed back to the free form diazoxide

CC1=NS(=O)(=O)c2cc(Cl)ccc2[N-]1.[K+] [potassium salt of diazoxide]
Form ([11]; Table 26, slow cooling, Water): Free form
Form ([11]; Table 30, single solvent, fast-cooling, MeCN): C + D
degradation under thermal stress (HPLC gradient area percent) ([2]; 60° C., 14 days): did not show any significant degradation
form conversion and degradation under thermal stress (XRPD, DSC) ([2]; 60° C., closed, protected from light, 7 and 14 days): showed unique peaks
crystalline form after moisture sorption/desorption (XRPD) [3]: changed to an alternate crystalline form
Moisture Sorption (hygroscopicity) ([3]; 25° C.): hygroscopic
hydrate formation (hysteresis upon desorption) ([3]; 25° C.): hemihydrate from 0-30% RH and a monohydrate from 35-75% RH
Moisture Sorption (hygroscopicity) [3, 16]: deliquescent -
hydrate formation (hysteresis upon desorption) [3, 16]: hemi/monohydrate
water absorbed ([3]; 60% RH, 25° C.): 5.4 wt %
water absorbed ([3]; 90% RH, 25° C.): 38.3 wt %
degradation after slurry study (HPLC gradient area percent) ([6]; toluene, 14 days): did not show any significant degradation
inter-conversion of the solid form in slurry [6]: no propensity of inter-conversion
solid form after the solubility analysis (XRPD) [10]: changed back to the free form diazoxide
